Test results as given in patent US12383544B2, “Methods for the treatment of polycystic kidney disease” (Galapagos NV, priority 2019, dated 2025).

Legend:
Format in all cases: cell-based
[1] = tested on: Pkd1-KO mouse-inner medullary collecting duct cells (mIMRFNPKD 5E4); experiment: 3D mice cyst assay; settings: 10 μM; 72 h; forskolin
Description: This assays uses PKD1−/− knocked-down medullary mouse duct cells which form small cysts. This cysts are then further stimulated with forskolin causing their expansion. Test compounds are then added with additional forskolin in order to evaluate their ability to counteract cysts formation. After 3 days, these cells are imaged, to measure in particular cyst size, cell number, nucleus shape, wall thickness.
The 3D cyst culture assay has been performed with Pkd1-KO mouse-inner medullary collecting duct cells (m[…] 5E4) cells as described previously. (Booij et al. 2017) In short: m[…] 5.10^4 cells were mixed with Cyst-Gel (OcellO B. V., Oortweg 21, Leiden, 2333CH, Netherlands). 15 μL of cell-gel mix was pipetted to 384-well plates (Greiner μClear, Greiner Bio-One B.V.) using a CyBio Felix 96/60 robotic liquid dispenser (Analyik Jena A G). Gel-cell mix was plated at a final cell density of 2250 cells per well. After gel polymerization at 37° C. for 30 min, 33 μL culture medium was added to each well. Cells were grown in gel for 96 h, after which the cells were co-exposed with forskolin (Calbiochem) and the following molecules: Rapamycin (SelleckChem, S1039), Staurosporin (SelleckChem, 51421) were used as cyst inhibiting or toxic control respectively. Test compounds were tested in the 3D assay at the indicated final concentrations. […]

wild type human CFTR = molecular target: T1, wild type human CFTR (Homo sapiens, UniProt P13569); experiment: Yellow Fluorescent Protein (YFP) halide assay in wild type CFTR (HEK293 cells); settings: HEK293 cells transfected with wild type human CFTR; 24 h incubation; 10 μM forskolin; read-out: EC50 of inhibition of WT CFTR
T1 construct: expressed in transfected cells; host or cells: HEK293
Description: To evaluate the ability of a test compound to inhibit wild type CFTR, a YFP halide assay using HEK293 cells transfected with wild type human CFTR was developed. (Galietta, Jayaraman, and Verkman 2001) Cells were incubated during 24 h with a dose range of test compound and the resulting wild type CFTR activity was plotted to obtain the EC50.
Test compounds were also added together with forskolin to wild type CFTR expressing cells in order to fully active the available CFTR at the plasma membrane and determine accurately the inhibition of the channel activity.
HEK293 cells were transfected with 10 to 80 ng of wild type CFTR and 20 ng of plasmid encoding YFP (H148Q/I152L/F47L) using jetPEI (Polyplus transfection). Directly after transfection, cells were seeded in black 96-well plates coated with Poly-D-lysine at a density of 70,000 cells per well. The next day, cells were treated with corrector(s) for 24 h. After this incubation period, cells were washed twice with DPBS with Ca^2+ and Mg^2+. Subsequently, cells were treated with 10 μM forskolin and the desired concentration of potentiator in a volume of 40 μl and incubated at room temperature for 10 min, a time point optimized in previous experiments resulting in a good window (positive control/negative control >2) and signal to background ratio. YFP fluorescence was measured using an EnVision plate reader (PerkinElmer). […]

wt CFTR (CFTR channel) = molecular target: T2, wt CFTR (CFTR channel) (Homo sapiens, UniProt P13569); experiment: TECC assay on normal primary human bronchial epithelial (HBE) cells; settings: 0.3 μM forskolin
T2 construct: evaluate compounds on normal primary bronchial epithelial cells (HBE cells); endogenous in cells; host or cells: normal primary human bronchial epithelial (HBE) cells from donor lungs
Description: The TECC assay is used to evaluate compounds on normal primary bronchial epithelial cells (HBE cells), which are closer to physiological conditions
Bronchial epithelial cells isolated from transplanted lungs from normal (wt CFTR) were isolated from lungs obtained from donors undergoing a planned transplantation. These primary cells were cultured directly on type IV collagen-coated polycarbonate Transwell supports with a diameter of 6.5 mm and pore size of 0.4 μm (Costar, #3397) for 18 to 25 days in air liquid (ali) interface essentially as previously described for TECC. (Fulcher et al. 2005)
Trans-epithelial clamp circuit (TECC) recordings were performed using the TECC instrument developed and sold by EP Design (Bertem, Belgium). During the recording, the epithelial cells were bathed in a NaCl-Ringer solution (120 mM NaCl, 20 mM HEPES, 1.2 mM CaCl2, 1.2 mM MgCl2, 0.8 mM KH2PO4, 0.8 mM K2HPO4, 5 mM glucose, pH 7.4) on both the basolateral (640 μl) and the apical side (160 μl) and kept at 37° C. Apical amiloride was used to inhibit the endogenous ENaC currents (100 μM) while forskolin (0.3 μM) was applied on both the apical and basolateral sides to stimulate CFTR. All triggers and compounds used during the experiment were first dissolved in DMSO to a 1000× concentrated solution, just prior to treatment a 10× stock was prepared in the NaCl-Ringer solution which was used for addition of the correct concentration of trigger and or compound during the experiment. Cells were treated with test compounds for 24 hours before recording and this treatment was repeated in the TECC buffer prior to the electrophysiological recording. Measurements were done during a 20-min timeframe with recordings every 2 min. The transepithelial potential (PD) and transepithelial resistance (Rt) were measured in an open circuit and transformed to Ieq using Ohm's law. The maximal increase in Ieq (Δ Ieq) was used as a measure for the increased CFTR activity.

T2 sequence (P13569 whole entry): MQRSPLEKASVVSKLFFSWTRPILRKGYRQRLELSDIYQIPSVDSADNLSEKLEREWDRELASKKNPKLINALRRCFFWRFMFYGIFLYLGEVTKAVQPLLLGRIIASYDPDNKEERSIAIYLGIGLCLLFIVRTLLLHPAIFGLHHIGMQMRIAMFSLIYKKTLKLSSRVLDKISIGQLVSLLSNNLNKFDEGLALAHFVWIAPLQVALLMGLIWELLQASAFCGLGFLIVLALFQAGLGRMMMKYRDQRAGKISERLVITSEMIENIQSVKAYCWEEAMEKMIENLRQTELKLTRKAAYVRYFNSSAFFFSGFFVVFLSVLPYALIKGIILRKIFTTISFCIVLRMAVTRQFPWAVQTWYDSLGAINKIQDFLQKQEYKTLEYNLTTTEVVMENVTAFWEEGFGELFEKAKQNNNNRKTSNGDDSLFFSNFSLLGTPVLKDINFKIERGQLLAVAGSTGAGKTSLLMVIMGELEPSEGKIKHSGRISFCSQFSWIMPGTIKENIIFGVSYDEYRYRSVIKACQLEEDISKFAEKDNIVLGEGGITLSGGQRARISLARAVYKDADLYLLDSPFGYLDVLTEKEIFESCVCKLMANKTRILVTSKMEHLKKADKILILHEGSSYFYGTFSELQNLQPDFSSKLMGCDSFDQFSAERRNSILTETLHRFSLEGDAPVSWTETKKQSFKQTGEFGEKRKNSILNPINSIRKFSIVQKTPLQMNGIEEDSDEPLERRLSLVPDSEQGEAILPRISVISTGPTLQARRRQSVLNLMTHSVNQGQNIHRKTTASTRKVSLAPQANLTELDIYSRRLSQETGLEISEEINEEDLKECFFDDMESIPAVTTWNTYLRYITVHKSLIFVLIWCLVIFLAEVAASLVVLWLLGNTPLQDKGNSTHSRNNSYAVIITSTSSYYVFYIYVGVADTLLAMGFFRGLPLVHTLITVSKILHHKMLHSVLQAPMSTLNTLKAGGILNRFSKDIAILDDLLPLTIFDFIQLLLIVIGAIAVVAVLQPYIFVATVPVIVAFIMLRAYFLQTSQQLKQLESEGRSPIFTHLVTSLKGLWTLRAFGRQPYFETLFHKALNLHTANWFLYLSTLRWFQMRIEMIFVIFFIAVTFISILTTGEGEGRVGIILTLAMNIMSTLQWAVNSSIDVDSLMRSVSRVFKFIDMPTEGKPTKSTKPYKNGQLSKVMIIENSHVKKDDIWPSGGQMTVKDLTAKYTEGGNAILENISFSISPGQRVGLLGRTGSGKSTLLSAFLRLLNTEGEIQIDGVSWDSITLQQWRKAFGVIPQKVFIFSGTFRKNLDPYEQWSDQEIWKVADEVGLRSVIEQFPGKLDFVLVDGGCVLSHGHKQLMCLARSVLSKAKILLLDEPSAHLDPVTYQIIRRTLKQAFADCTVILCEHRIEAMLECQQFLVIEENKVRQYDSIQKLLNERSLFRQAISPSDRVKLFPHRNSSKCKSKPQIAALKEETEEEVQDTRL
T1 sequence (P13569 whole entry): as above

With `COC1CCN(C2CCN(c3cc(C(=O)NS(=O)(=O)N(C)C)nc4c3c(C3CCC3)nn4-c3ccc(F)cc3)CC2)CC1` [Cpd 1] as the compound, how does the “cyst swelling compared to vehicle (set at 100%)” value [1] read?
Its value is 14.5%.

And the “reduction in cyst swelling” value [1]?
The value was 85.5%.

What about the EC50 (wild type human CFTR) of the same compound?
Its EC50 is 0.728 µM.

What about the IC50 (wt CFTR (CFTR channel); read-out: IC50 value (resulting from pIC50) (converted)) of the same compound?
The IC50 was 0.108 µM.

And the “reduction of channel activity” value (wt CFTR (CFTR channel); vs DMSO control)?
Its value is 54%.

What about the “current after incubation (Ieq)” value (wt CFTR (CFTR channel); 24 h treatment) of the same compound?
Its value is 6.6 μA/cm^2.
